Values of other authors, collected in patent US20070141147A1, “SEQUENTIAL RELEASE PHARMACEUTICAL FORMULATIONS” (Auriga Laboratories, Inc., priority 2005, published 2007).
Counter-ions that a name gives are not always drawn.

How the values were obtained:
[1] = water and alcohol
[2] = in vivo

| solubility [1] | SMILES | plasma half-life [2] |
| --- | --- | --- |
| soluble | COc1ccccc1OCC(O)CO (stereo not drawn) [Guaifenesin, 3-(2-methoxyphenoxy)-1,2-propanediol] |  |
| freely soluble | CNCC(O)c1cccc(O)c1 (stereo in doubt) [Phenylephrine hydrochloride, (S)-3-hydroxy-[alpha][(methylamino)methylbenzenemethanol hydrochloride] |  |
|  | C[N+]1(C)[C@@H]2C[C@@H](OC(=O)[C@H](CO)c3ccccc3)C[C@H]1[C@@H]1O[C@@H]12 [methscopolamine] | relatively short |
